Experimental data published in the kinase profiling compilation of Christmann-Franck et al. (2016).

Key:
Assay in all cases: radiometric filter-binding kinase assay
[1] = tested on: AKT2 (human), P31751 [S474D]
AURKA (human) = AURKA (human) (UniProt O14965)
AURKB (human) = AURKB (human) (UniProt Q96GD4)
CHEK1 (human) = CHEK1 (human) (UniProt O14757)
CSNK1D (human) = CSNK1D (human) (UniProt P48730)
EEF2K (human) = EEF2K (human) (UniProt O00418)
EPHB1 (human) = EPHB1 (human) (UniProt P54762)
EPHB4 (human) = EPHB4 (human) (UniProt P54760)
FGFR1 (human) = FGFR1 (human) (UniProt P11362)
FLT1 (human) = FLT1 (human) (UniProt P17948)
GCK (human) = GCK (human) (UniProt Q12851)
GSK3B (human) = GSK3B (human) (UniProt P49841)
HIPK1 (human) = HIPK1 (human) (UniProt Q86Z02)
HIPK2 (human) = HIPK2 (human) (UniProt Q9H2X6)
IGF1R (human) = IGF1R (human) (UniProt P08069)
MAP2K2 (human) = MAP2K2 (human) (UniProt P36507)
MAP3K1 (human) = MAP3K1 (human) (UniProt Q13233)
MAP3K5 (human) = MAP3K5 (human) (UniProt Q99683)
MAP3K9 (human) = MAP3K9 (human) (UniProt P80192)
Sequence of MAP3K9 (human) (P80192 whole entry, looked up): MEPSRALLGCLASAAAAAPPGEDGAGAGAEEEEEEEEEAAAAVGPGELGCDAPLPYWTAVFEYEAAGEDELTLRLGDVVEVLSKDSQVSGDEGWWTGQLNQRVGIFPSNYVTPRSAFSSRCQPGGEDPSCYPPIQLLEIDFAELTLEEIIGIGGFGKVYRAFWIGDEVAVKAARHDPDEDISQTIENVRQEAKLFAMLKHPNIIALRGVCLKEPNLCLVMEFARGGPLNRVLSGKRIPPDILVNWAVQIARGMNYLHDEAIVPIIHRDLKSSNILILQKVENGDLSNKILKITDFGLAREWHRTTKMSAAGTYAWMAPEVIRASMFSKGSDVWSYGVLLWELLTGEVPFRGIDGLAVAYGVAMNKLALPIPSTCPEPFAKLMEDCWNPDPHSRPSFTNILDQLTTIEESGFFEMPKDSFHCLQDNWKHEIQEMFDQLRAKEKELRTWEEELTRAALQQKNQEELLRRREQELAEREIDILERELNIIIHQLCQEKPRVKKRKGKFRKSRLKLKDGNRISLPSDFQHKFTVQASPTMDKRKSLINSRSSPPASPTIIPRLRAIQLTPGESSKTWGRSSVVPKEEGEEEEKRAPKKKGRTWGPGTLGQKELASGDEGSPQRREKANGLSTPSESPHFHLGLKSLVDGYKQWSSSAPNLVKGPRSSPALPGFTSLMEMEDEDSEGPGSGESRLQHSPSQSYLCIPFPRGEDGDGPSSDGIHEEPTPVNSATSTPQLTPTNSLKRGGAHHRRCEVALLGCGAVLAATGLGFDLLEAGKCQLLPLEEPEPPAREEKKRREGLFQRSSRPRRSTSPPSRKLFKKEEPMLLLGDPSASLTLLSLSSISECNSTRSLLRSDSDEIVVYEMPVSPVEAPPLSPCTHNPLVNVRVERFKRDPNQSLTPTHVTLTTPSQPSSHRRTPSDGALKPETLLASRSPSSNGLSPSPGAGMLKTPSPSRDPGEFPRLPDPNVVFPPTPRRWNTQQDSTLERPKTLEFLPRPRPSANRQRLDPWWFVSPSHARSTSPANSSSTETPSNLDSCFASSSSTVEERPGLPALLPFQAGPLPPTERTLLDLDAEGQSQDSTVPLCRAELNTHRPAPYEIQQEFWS

MAPK1 (human) = MAPK1 (human) (UniProt P28482)
MAPK10 (human) = MAPK10 (human) (UniProt P53779)
Sequence of MAPK10 (human) (P53779 whole entry, looked up): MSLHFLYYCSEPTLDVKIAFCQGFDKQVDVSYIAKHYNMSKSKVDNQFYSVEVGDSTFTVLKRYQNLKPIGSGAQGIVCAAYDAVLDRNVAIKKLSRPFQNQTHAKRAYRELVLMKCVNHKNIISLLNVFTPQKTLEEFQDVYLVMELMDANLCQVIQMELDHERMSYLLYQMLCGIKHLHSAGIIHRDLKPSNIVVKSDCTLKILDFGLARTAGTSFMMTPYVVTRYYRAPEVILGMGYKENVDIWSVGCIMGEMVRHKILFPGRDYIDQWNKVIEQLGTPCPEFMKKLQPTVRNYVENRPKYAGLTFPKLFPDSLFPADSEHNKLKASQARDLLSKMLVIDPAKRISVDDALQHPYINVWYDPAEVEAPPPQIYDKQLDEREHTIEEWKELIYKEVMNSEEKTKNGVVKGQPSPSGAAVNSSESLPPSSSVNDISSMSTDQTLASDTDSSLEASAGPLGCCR

MAPK13 (human) = MAPK13 (human) (UniProt O15264)
MAPK9 (human) = MAPK9 (human) (UniProt P45984)
MARK4 (human) = MARK4 (human) (UniProt Q96L34)
MELK (human) = MELK (human) (UniProt Q14680)
MYLK (human) = MYLK (human) (UniProt Q15746)
[2] = tested on: PAK2 (human), Q13177 [T402E]
PAK6 (human) = PAK6 (human) (UniProt Q9NQU5)
PKN2 (human) = PKN2 (human) (UniProt Q16513)
PRKCZ (human) = PRKCZ (human) (UniProt Q05513)
SRC (human) = SRC (human) (UniProt P12931)
Sequence of SRC (human) (P12931 whole entry, looked up): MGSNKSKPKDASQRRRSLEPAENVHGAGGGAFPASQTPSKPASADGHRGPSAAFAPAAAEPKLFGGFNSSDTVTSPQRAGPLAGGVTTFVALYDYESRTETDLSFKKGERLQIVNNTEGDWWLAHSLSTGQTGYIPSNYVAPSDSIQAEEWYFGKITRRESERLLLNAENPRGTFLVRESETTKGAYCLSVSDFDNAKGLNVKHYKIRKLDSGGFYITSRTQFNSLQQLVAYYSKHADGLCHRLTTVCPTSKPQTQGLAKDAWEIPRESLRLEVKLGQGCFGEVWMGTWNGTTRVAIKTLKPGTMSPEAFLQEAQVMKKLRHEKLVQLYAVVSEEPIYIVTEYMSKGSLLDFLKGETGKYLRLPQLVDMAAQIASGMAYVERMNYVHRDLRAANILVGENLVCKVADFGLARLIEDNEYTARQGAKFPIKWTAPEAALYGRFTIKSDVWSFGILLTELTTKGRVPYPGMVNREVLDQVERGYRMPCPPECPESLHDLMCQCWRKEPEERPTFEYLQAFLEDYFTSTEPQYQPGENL

[3] = molecular target: STK11 CAB39 STRADA (human) (UniProt Q9Y376+Q7RTN6+Q15831)
SYK (human) = SYK (human) (UniProt P43405)
TAOK1 (human) = TAOK1 (human) (UniProt Q7L7X3)
Sequence of TAOK1 (human) (Q7L7X3 whole entry, looked up): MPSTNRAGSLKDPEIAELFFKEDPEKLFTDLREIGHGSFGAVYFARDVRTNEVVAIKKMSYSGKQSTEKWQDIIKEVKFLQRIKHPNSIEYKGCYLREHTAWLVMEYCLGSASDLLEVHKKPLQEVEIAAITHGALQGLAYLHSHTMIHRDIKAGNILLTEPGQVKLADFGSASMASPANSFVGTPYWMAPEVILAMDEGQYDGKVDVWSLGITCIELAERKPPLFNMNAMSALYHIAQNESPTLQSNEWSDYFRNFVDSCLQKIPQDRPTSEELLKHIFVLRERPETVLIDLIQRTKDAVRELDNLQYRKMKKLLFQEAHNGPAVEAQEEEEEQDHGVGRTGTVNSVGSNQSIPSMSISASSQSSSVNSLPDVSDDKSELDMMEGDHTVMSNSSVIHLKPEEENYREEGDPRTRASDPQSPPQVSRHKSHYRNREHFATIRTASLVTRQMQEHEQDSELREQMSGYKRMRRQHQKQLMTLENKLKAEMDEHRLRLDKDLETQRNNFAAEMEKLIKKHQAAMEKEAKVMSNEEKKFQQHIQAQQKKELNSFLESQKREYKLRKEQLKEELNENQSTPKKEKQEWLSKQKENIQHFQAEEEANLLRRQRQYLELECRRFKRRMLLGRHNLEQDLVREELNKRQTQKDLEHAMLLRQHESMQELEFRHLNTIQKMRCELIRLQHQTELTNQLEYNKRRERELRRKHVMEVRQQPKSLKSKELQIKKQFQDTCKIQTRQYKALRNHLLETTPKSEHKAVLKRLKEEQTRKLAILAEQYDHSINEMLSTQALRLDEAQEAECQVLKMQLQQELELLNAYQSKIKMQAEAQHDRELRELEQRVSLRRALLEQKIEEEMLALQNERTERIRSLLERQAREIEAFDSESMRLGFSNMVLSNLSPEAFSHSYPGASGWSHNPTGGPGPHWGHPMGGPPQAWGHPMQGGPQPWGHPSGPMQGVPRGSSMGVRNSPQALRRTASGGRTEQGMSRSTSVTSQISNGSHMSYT

TTK (human) = TTK (human) (UniProt P33981)
YES1 (human) = YES1 (human) (UniProt P07947)

Sequence of CHEK1 (human) (O14757 whole entry, looked up): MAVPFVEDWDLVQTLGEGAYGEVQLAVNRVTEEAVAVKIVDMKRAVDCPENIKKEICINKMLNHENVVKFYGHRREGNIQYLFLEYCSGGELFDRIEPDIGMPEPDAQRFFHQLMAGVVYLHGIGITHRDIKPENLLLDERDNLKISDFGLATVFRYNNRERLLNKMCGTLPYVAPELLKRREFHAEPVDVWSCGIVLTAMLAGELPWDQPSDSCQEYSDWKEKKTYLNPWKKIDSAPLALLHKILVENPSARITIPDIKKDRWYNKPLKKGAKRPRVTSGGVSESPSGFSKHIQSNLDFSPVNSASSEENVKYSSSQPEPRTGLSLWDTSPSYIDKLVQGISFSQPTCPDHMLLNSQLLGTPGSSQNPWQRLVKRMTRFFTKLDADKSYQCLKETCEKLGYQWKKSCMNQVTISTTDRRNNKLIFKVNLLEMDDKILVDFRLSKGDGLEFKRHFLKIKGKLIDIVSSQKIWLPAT
Sequence of EEF2K (human) (O00418 whole entry, looked up): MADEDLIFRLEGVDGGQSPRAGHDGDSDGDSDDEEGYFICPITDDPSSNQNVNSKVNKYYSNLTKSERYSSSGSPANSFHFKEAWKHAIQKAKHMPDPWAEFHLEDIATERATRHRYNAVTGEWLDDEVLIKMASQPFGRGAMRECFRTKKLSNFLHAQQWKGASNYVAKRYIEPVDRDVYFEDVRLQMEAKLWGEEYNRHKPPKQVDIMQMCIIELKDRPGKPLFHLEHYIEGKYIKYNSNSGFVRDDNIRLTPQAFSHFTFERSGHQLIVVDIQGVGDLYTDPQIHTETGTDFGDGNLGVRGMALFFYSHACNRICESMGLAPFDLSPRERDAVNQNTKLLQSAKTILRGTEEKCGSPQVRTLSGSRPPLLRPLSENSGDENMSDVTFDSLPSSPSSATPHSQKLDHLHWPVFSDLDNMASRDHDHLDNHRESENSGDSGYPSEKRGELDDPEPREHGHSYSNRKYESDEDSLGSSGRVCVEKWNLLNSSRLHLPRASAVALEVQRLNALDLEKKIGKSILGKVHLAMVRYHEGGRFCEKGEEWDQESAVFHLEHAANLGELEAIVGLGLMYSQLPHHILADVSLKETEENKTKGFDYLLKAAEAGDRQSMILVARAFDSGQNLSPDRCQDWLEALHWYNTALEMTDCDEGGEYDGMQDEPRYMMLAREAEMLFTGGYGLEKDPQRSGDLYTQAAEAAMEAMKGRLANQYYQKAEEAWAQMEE
Sequence of AURKA (human) (O14965 whole entry, looked up): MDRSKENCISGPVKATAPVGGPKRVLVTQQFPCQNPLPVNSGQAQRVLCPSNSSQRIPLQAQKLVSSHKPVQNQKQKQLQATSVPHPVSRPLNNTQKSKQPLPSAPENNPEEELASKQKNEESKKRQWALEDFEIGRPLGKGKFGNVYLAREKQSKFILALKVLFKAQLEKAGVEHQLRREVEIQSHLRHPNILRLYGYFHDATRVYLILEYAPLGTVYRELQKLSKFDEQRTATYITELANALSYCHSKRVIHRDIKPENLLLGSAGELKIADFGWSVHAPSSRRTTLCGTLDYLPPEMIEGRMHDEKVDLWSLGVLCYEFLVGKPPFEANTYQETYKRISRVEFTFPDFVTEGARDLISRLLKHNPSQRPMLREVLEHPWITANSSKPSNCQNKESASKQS

Cc1ccc(=O)n(-c2ccccc2)c1
residual activity ([1]; compound 1.0 µM): 99% | residual activity ([1]; compound 10.0 µM): 91% | residual activity (AURKA (human); compound 1.0 µM): 106% | residual activity (AURKA (human); compound 10.0 µM): 107% | residual activity (AURKB (human); compound 1.0 µM): 93% | residual activity (AURKB (human); compound 10.0 µM): 87% | residual activity (CHEK1 (human); compound 1.0 µM): 97% | residual activity (CHEK1 (human); compound 10.0 µM): 90% | residual activity (CSNK1D (human); compound 1.0 µM): 97% | residual activity (CSNK1D (human); compound 10.0 µM): 102% | residual activity (EEF2K (human); compound 1.0 µM): 83% | residual activity (EEF2K (human); compound 10.0 µM): 87% | residual activity (EPHB1 (human); compound 10.0 µM): 104% | residual activity (EPHB4 (human); compound 1.0 µM): 112% | residual activity (EPHB4 (human); compound 10.0 µM): 120% | residual activity (FGFR1 (human); compound 1.0 µM): 101% | residual activity (FLT1 (human); compound 1.0 µM): 100% | residual activity (FLT1 (human); compound 10.0 µM): 107% | residual activity (GCK (human); compound 1.0 µM): 106% | residual activity (GCK (human); compound 10.0 µM): 108% | residual activity (GSK3B (human); compound 1.0 µM): 102% | residual activity (GSK3B (human); compound 10.0 µM): 99% | residual activity (HIPK1 (human); compound 1.0 µM): 118% | residual activity (HIPK1 (human); compound 10.0 µM): 103% | residual activity (HIPK2 (human); compound 1.0 µM): 122% | residual activity (HIPK2 (human); compound 10.0 µM): 106% | residual activity (IGF1R (human); compound 1.0 µM): 105% | residual activity (IGF1R (human); compound 10.0 µM): 102% | residual activity (MAP2K2 (human); compound 1.0 µM): 58% | residual activity (MAP2K2 (human); compound 10.0 µM): 35% | residual activity (MAP3K1 (human); compound 1.0 µM): 106% | residual activity (MAP3K1 (human); compound 10.0 µM): 103% | residual activity (MAP3K5 (human); compound 10.0 µM): 99% | residual activity (MAP3K9 (human); compound 1.0 µM): 95% | residual activity (MAP3K9 (human); compound 10.0 µM): 89% | residual activity (MAPK1 (human); compound 1.0 µM): 95% | residual activity (MAPK1 (human); compound 10.0 µM): 97% | residual activity (MAPK10 (human); compound 1.0 µM): 83% | residual activity (MAPK10 (human); compound 10.0 µM): 86% | residual activity (MAPK13 (human); compound 1.0 µM): 97% | residual activity (MAPK13 (human); compound 10.0 µM): 91% | residual activity (MAPK9 (human); compound 1.0 µM): 85% | residual activity (MAPK9 (human); compound 10.0 µM): 86% | residual activity (MARK4 (human); compound 10.0 µM): 74% | residual activity (MELK (human); compound 1.0 µM): 94% | residual activity (MELK (human); compound 10.0 µM): 98% | residual activity (MYLK (human); compound 1.0 µM): 102% | residual activity (MYLK (human); compound 10.0 µM): 89% | residual activity ([2]; compound 1.0 µM): 101% | residual activity ([2]; compound 10.0 µM): 100% | residual activity (PAK6 (human); compound 1.0 µM): 106% | residual activity (PAK6 (human); compound 10.0 µM): 96% | residual activity (PKN2 (human); compound 1.0 µM): 121% | residual activity (PKN2 (human); compound 10.0 µM): 91% | residual activity (PRKCZ (human); compound 1.0 µM): 109% | residual activity (PRKCZ (human); compound 10.0 µM): 97% | residual activity (SRC (human); compound 1.0 µM): 123% | residual activity (SRC (human); compound 10.0 µM): 102% | residual activity ([3]; compound 1.0 µM): 103% | residual activity ([3]; compound 10.0 µM): 95% | residual activity (SYK (human); compound 1.0 µM): 99% | residual activity (SYK (human); compound 10.0 µM): 103% | residual activity (TAOK1 (human); compound 1.0 µM): 118% | residual activity (TAOK1 (human); compound 10.0 µM): 100% | residual activity (TTK (human); compound 1.0 µM): 73% | residual activity (TTK (human); compound 10.0 µM): 76% | residual activity (YES1 (human); compound 1.0 µM): 118% | residual activity (YES1 (human); compound 10.0 µM): 109%

O=C(Nc1ccccc1-c1cn2c(CN3CCNCC3)csc2n1)c1cnc2ccccc2n1
residual activity ([1]; compound 0.1 µM): 75% | residual activity ([1]; compound 1.0 µM): 70% | residual activity ([1]; compound 10.0 µM): 61% | residual activity (AURKA (human); compound 1.0 µM): 102% | residual activity (AURKA (human); compound 10.0 µM): 94% | residual activity (AURKB (human); compound 1.0 µM): 93% | residual activity (AURKB (human); compound 10.0 µM): 90% | residual activity (CHEK1 (human); compound 0.1 µM): 86% | residual activity (CHEK1 (human); compound 1.0 µM): 98% | residual activity (CHEK1 (human); compound 10.0 µM): 96% | residual activity (CSNK1D (human); compound 0.1 µM): 99% | residual activity (CSNK1D (human); compound 1.0 µM): 106% | residual activity (CSNK1D (human); compound 10.0 µM): 91% | residual activity (EEF2K (human); compound 0.1 µM): 102% | residual activity (EEF2K (human); compound 1.0 µM): 106% | residual activity (EEF2K (human); compound 10.0 µM): 117% | residual activity (EPHB1 (human); compound 1.0 µM): 102% | residual activity (EPHB1 (human); compound 10.0 µM): 88% | residual activity (EPHB4 (human); compound 1.0 µM): 96% | residual activity (EPHB4 (human); compound 10.0 µM): 103% | residual activity (FGFR1 (human); compound 0.1 µM): 103% | residual activity (FGFR1 (human); compound 1.0 µM): 91% | residual activity (FGFR1 (human); compound 10.0 µM): 68% | residual activity (FLT1 (human); compound 0.1 µM): 90% | residual activity (FLT1 (human); compound 1.0 µM): 89% | residual activity (FLT1 (human); compound 10.0 µM): 53% | residual activity (GCK (human); compound 1.0 µM): 102% | residual activity (GCK (human); compound 10.0 µM): 99% | residual activity (GSK3B (human); compound 1.0 µM): 78% | residual activity (GSK3B (human); compound 10.0 µM): 67% | residual activity (HIPK1 (human); compound 1.0 µM): 104% | residual activity (HIPK1 (human); compound 10.0 µM): 91% | residual activity (HIPK2 (human); compound 1.0 µM): 86% | residual activity (HIPK2 (human); compound 10.0 µM): 38% | residual activity (IGF1R (human); compound 0.1 µM): 92% | residual activity (IGF1R (human); compound 1.0 µM): 96% | residual activity (IGF1R (human); compound 10.0 µM): 25% | residual activity (MAP2K2 (human); compound 1.0 µM): 109% | residual activity (MAP2K2 (human); compound 10.0 µM): 90% | residual activity (MAP3K1 (human); compound 1.0 µM): 92% | residual activity (MAP3K1 (human); compound 10.0 µM): 45% | residual activity (MAP3K5 (human); compound 1.0 µM): 98% | residual activity (MAP3K5 (human); compound 10.0 µM): 100% | residual activity (MAP3K9 (human); compound 1.0 µM): 92% | residual activity (MAP3K9 (human); compound 10.0 µM): 40% | residual activity (MAPK1 (human); compound 0.1 µM): 93% | residual activity (MAPK1 (human); compound 1.0 µM): 103% | residual activity (MAPK1 (human); compound 10.0 µM): 97% | residual activity (MAPK10 (human); compound 1.0 µM): 105% | residual activity (MAPK10 (human); compound 10.0 µM): 89% | residual activity (MAPK13 (human); compound 0.1 µM): 91% | residual activity (MAPK13 (human); compound 1.0 µM): 78% | residual activity (MAPK13 (human); compound 10.0 µM): 85% | residual activity (MAPK9 (human); compound 0.1 µM): 101% | residual activity (MAPK9 (human); compound 1.0 µM): 93% | residual activity (MAPK9 (human); compound 10.0 µM): 87% | residual activity (MARK4 (human); compound 1.0 µM): 110% | residual activity (MARK4 (human); compound 10.0 µM): 85% | residual activity (MELK (human); compound 0.1 µM): 97% | residual activity (MELK (human); compound 1.0 µM): 74% | residual activity (MELK (human); compound 10.0 µM): 52% | residual activity (MYLK (human); compound 0.1 µM): 82% | residual activity (MYLK (human); compound 1.0 µM): 27% | residual activity (MYLK (human); compound 10.0 µM): 10% | residual activity ([2]; compound 1.0 µM): 107% | residual activity ([2]; compound 10.0 µM): 108% | residual activity (PAK6 (human); compound 0.1 µM): 101% | residual activity (PAK6 (human); compound 1.0 µM): 92% | residual activity (PAK6 (human); compound 10.0 µM): 87% | residual activity (PKN2 (human); compound 0.1 µM): 90% | residual activity (PKN2 (human); compound 1.0 µM): 103% | residual activity (PKN2 (human); compound 10.0 µM): 104% | residual activity (PRKCZ (human); compound 0.1 µM): 78% | residual activity (PRKCZ (human); compound 1.0 µM): 105% | residual activity (PRKCZ (human); compound 10.0 µM): 103% | residual activity (SRC (human); compound 0.1 µM): 85% | residual activity (SRC (human); compound 1.0 µM): 93% | residual activity (SRC (human); compound 10.0 µM): 121% | residual activity ([3]; compound 1.0 µM): 93% | residual activity ([3]; compound 10.0 µM): 97% | residual activity (SYK (human); compound 0.1 µM): 109% | residual activity (SYK (human); compound 1.0 µM): 93% | residual activity (SYK (human); compound 10.0 µM): 67% | residual activity (TAOK1 (human); compound 1.0 µM): 86% | residual activity (TAOK1 (human); compound 10.0 µM): 97% | residual activity (TTK (human); compound 1.0 µM): 85% | residual activity (TTK (human); compound 10.0 µM): 68% | residual activity (YES1 (human); compound 0.1 µM): 69% | residual activity (YES1 (human); compound 1.0 µM): 82% | residual activity (YES1 (human); compound 10.0 µM): 80%
